Earlier results, collected in EP1790727A2, “Proteins and nucleic acids encoding same” (Curagen Corporation, priority 2000, dated 2002).
Where two headings read alike, the source gives them in different places.

Assays:
MgATP-actin = MgATP-actin (Homo sapiens, UniProt P68133); settings: but not CaATP-actin
[1] = for increased reepithelialization over saline controls: topically or intraperitoneally
[2] = in vivo, mouse paw
keratinocyte = settings: after 4-5 h; as little as 10 pg of Tbeta4
neutrophil = settings: in vitro

| proteolysis at Gly(46) on subdomain 2, faster when Tbeta(4) is bound (MgATP-actin) | Substance | wound contraction more than controls ([1]; by day 7) | collagen deposition and angiogenesis in the treated wounds ([1]; rat, in vivo) | increased reepithelialization over saline controls ([1]; at 4 d) | increased reepithelialization over saline controls ([1]; at 7 d post-wounding) | carrageenin-induced edema [2] | migration stimulated over migration with medium alone (keratinocyte) | neutrophil chemotaxis (neutrophil) |
| --- | --- | --- | --- | --- | --- | --- | --- | --- |
| > 12 times | thymosin beta4 [Tbeta4] | at least 11% | Increased | 42% | ≤ 61% | not | 2-3 fold | – |
| – | thymosin beta4 sulfoxide | – | – | – | – | potent inhibitor | – | inhibited |
